Active and inactive are the calls of the source. No cut-off for these calls is given here.
Columns and labels:
HeLa [1] = experiment: Antiproliferative activity against human HeLa cells assessed as growth inhibition at 20 uM viability after 72 hrs by SRB assay relative to control; assay type: functional; conditions: read-out: GI
HeLa [2] = experiment: Antiproliferative activity against human HeLa cells assessed as reduction in cell viability after 72 hrs by SRB assay; assay type: functional, cell-based
HeLa [3] = experiment: Antiproliferative activity against human HeLa cells assessed as growth inhibition at 1 uM viability after 72 hrs by SRB assay relative to control; assay type: functional; conditions: read-out: GI
[4] = Antiproliferative activity against human C4-1 cells assessed as reduction in cell viability after 72 hrs by SRB assay; assay type: functional, cell-based; conditions: C4-1, 72 h
SiHa = experiment: Antiproliferative activity against human SiHa cells assessed as reduction in cell viability after 72 hrs by SRB assay; assay type: functional, cell-based
C-33-A = experiment: Antiproliferative activity against human C-33-A cells assessed as reduction in cell viability after 72 hrs by SRB assay; assay type: functional, cell-based
HEK293 = experiment: Cytotoxicity against human HEK293 cells assessed as reduction in cell viability after 72 hrs by SRB assay; assay type: cell-based; conditions: HEK293, 72 h
HeLa [5] = experiment: Antitumour activity against human HeLa cells xenografted in BALB/c nude mouse assessed as reduction in tumour growth at 50 mg/kg, ig administered for alternative days; assay type: functional, organism-based
SK-OV-3 = experiment: Antitumour activity against human SKOV-3 cells xenografted in BALB/c nude mouse assessed as reduction in tumour growth at 50 mg/kg, ig administered for alternative days; assay type: functional, organism-based
MCF7 = experiment: Antitumour activity against human MCF7 cells xenografted in BALB/c nude mouse assessed as reduction in tumour growth at 50 mg/kg, ig administered for alternative days; assay type: functional, organism-based
A-375 = experiment: Antitumour activity against human A375 cells xenografted in BALB/c nude mouse assessed as reduction in tumour growth at 50 mg/kg, ig administered for alternative days; assay type: functional, organism-based
A-431 = experiment: Antitumour activity against human A431 cells xenografted in BALB/c nude mouse assessed as reduction in tumour growth at 50 mg/kg, ig administered for alternative days; assay type: functional, organism-based
[6] = Toxicity in BALB/c nude mouse xenografted with human HeLa cells assessed as effect on body weight at 50 mg/kg, ig administered for alternative days; assay type: organism-based; conditions: in vivo, po
[7] = Toxicity in BALB/c nude mouse xenografted with human SKOV-3 cells assessed as effect on body weight at 50 mg/kg, ig administered for alternative days; assay type: organism-based; conditions: in vivo, po
[8] = Toxicity in BALB/c nude mouse xenografted with human MCF7 cells assessed as effect on body weight at 50 mg/kg, ig administered for alternative days; assay type: organism-based; conditions: in vivo, po
[9] = Toxicity in BALB/c nude mouse xenografted with human A375 cells assessed as effect on body weight at 50 mg/kg, ig administered for alternative days; assay type: organism-based; conditions: in vivo, po
[10] = Toxicity in BALB/c nude mouse xenografted with human A431 cells assessed as effect on body weight at 50 mg/kg, ig administered for alternative days; assay type: organism-based; conditions: in vivo, po
HeLa [11] = experiment: Induction of cell cycle arrest in human HeLa cells assessed as decrease in accumulation in S phase at 1 uM after 24 hrs by RNAse/propidium iodide staining based flow cytometric analysis; assay type: functional
HeLa [12] = experiment: Induction of apoptosis in human HeLa cells assessed as viable cells at 1 uM after 24 hrs by Annexin V FITC/propidium iodide staining based flow cytometric analysis (reference value: 97.97%); assay type: functional; conditions: read-out: Activity
HeLa [13] = experiment: Induction of apoptosis in human HeLa cells assessed as early apoptotic cells at 1 uM after 24 hrs by Annexin V FITC/propidium iodide staining based flow cytometric analysis (reference value: 0.6%); assay type: functional
HeLa [14] = experiment: Induction of apoptosis in human HeLa cells assessed as late apoptotic cells at 1 uM after 24 hrs by Annexin V FITC/propidium iodide staining based flow cytometric analysis (reference value: 0.41%); assay type: functional
HeLa [15] = experiment: Induction of apoptosis in human HeLa cells assessed as necrotic cells at 1 uM after 24 hrs by Annexin V FITC/propidium iodide staining based flow cytometric analysis (reference value: 1.02%); assay type: functional
human papillomavirus 18 [16] = experiment: Down regulation of viral protein E6 in HPV18 infected in human HeLa cells after 24 hrs by Western blot analysis; assay type: functional, cell-based; conditions: dose 0.5-10 µM
human papillomavirus 18 [17] = experiment: Down regulation of viral protein E7 in HPV18 infected in human HeLa cells after 24 hrs by Western blot analysis; assay type: functional, cell-based; conditions: dose 0.5-10 µM
human papillomavirus 18 [18] = experiment: Down regulation of viral protein E6 in HPV18 infected in human C4-1 cells after 24 hrs by Western blot analysis; assay type: functional, cell-based; conditions: dose 0.5-10 µM
human papillomavirus 18 [19] = experiment: Down regulation of viral protein E7 in HPV18 infected in human C4-1 cells after 24 hrs by Western blot analysis; assay type: functional, cell-based; conditions: dose 0.5-10 µM
[20] = target: T1, Protein E7 (human papillomavirus 18) (UniProt P06788); experiment: Inhibition of viral protein E7 in HPV18 infected in human HeLa cells assessed as reduction in phosphorylation of Rb at S608 residue after 24 hrs by Western blot analysis; assay type: cell-based; conditions: dose 0.5-10 µM
T1 sequence (whole entry): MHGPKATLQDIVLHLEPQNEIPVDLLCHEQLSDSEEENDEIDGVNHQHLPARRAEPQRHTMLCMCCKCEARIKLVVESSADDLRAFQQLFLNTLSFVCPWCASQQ

[21] = target: T1, Protein E7 (human papillomavirus 18); experiment: Inhibition of viral protein E7 in HPV18 infected in human HeLa cells assessed as reduction in phosphorylation of Rb at S780 residue after 24 hrs by Western blot analysis; assay type: cell-based; conditions: dose 0.5-10 µM
[22] = target: T1, Protein E7 (human papillomavirus 18); experiment: Inhibition of viral protein E7 in HPV18 infected in human HeLa cells assessed as reduction in E2F-1 protein […] after 24 hrs by Western blot analysis; assay type: cell-based; conditions: dose 0.5-10 µM
[23] = target: T1, Protein E7 (human papillomavirus 18); experiment: Inhibition of viral protein E7 in HPV18 infected in human HeLa cells assessed as reduction in DNMT1 protein […] after 24 hrs by Western blot analysis; assay type: cell-based; conditions: dose 0.5-10 µM
HeLa [24] = experiment: Down regulation of viral protein E7 in HPV18 infected in human HeLa cells at 5 uM after 24 hrs in presence of MG132 by Western blot analysis; assay type: functional, cell-based

Nc1ccc2nc(N)sc2c1
inhibition of growth at 20 µM (HeLa [1]): 6.9%

Clc1ccc(-c2nc3ccccc3s2)c(Cl)c1
inhibition of growth at 20 µM (HeLa [1]): 0.3%

Nc1ccc(-c2nc3ccccc3[nH]2)cc1
inhibition of growth at 20 µM (HeLa [1]): 1.9%

Nc1ccc2oc(-c3ccc4ncsc4c3)nc2c1
IC50 (HeLa [2]): 7.08 µM
inhibition of growth at 20 µM (HeLa [1]): 58%
inhibition of growth at 1 µM (HeLa [3]): 20.3%

O=C(Nc1nc2ccccc2s1)c1cccnc1Cl
inhibition of growth at 20 µM (HeLa [1]): 5.5%

Nc1ccc(-c2nc3cc(N)ccc3[nH]2)cc1
inhibition of growth at 20 µM (HeLa [1]): 4%

Nc1ccc2oc(-c3cc(I)ccc3Cl)nc2c1
inhibition of growth at 20 µM (HeLa [1]): 26.5%

c1cncc(-c2nc3ccccc3s2)c1
inhibition of growth at 20 µM (HeLa [1]): 4.4%

Nc1ccc2oc(-c3ccc4nc(N)sc4c3)nc2c1
IC50 (HeLa [2]): 0.38 µM
IC50 [4]: 0.44 µM
IC50 (SiHa): 11.5 µM
IC50 (C-33-A): 11.9 µM
IC50 (HEK293): > 20 µM
inhibition of growth at 20 µM (HeLa [1]): 81.1%
inhibition of growth at 1 µM (HeLa [3]): 81.7%
Activity (HeLa [5]): Active
Activity (SK-OV-3): inactive
Activity (MCF7): inactive
Activity (A-375): inactive
Activity (A-431): inactive
Activity [6]: Non-Toxic
Activity [7]: Non-Toxic
Activity [8]: Non-Toxic
Activity [9]: Non-Toxic
Activity [10]: Non-Toxic
Activity (HeLa [11]): Active
viability at 1 µM (HeLa [12]): 85.8%
Activity (HeLa [13]): 8.77%
Activity (HeLa [14]): 3.05%
Activity (HeLa [15]): 2.33%
Activity (human papillomavirus 18 [16]): Dose-dependent effect
Activity (human papillomavirus 18 [17]): Dose-dependent effect
Activity (human papillomavirus 18 [18]): Dose-dependent effect
Activity (human papillomavirus 18 [19]): Dose-dependent effect
inhibition [20]: Dose-dependent effect
inhibition [21]: Dose-dependent effect
inhibition [22]: Dose-dependent effect
inhibition [23]: Dose-dependent effect
Activity (HeLa [24]): inactive

Nc1ccc2oc(-c3ccccc3F)nc2c1
inhibition of growth at 20 µM (HeLa [1]): 42.4%

O=S(=O)(O)c1nc2ccccc2s1
inhibition of growth at 20 µM (HeLa [1]): 25%

CC[n+]1ccccc1-c1nc2ccccc2s1
inhibition of growth at 20 µM (HeLa [1]): 2.1%

c1ccc(-c2nc3ccccc3s2)cc1 [2-PHENYLBENZO[D]THIAZOLE]
inhibition of growth at 20 µM (HeLa [1]): 2.6%

C[n+]1ccccc1-c1nc2ccccc2s1
inhibition of growth at 20 µM (HeLa [1]): 1.2%

O=[N+]([O-])c1cccc(-c2nc3ccccc3s2)c1
inhibition of growth at 20 µM (HeLa [1]): 4.4%

Nc1ccc2oc(-c3ccc(Cl)cc3Cl)nc2c1
inhibition of growth at 20 µM (HeLa [1]): 6%

Brc1cccc(-c2nc3ccccc3s2)c1
inhibition of growth at 20 µM (HeLa [1]): 2.6%

Brc1ccc(-c2nc3ccccc3s2)cc1
inhibition of growth at 20 µM (HeLa [1]): 5.5%

Clc1ccccc1-c1nc2ccccc2s1
inhibition of growth at 20 µM (HeLa [1]): 4.9%

Nc1ccc2oc(-c3cccc4c(Br)cccc34)nc2c1
inhibition of growth at 20 µM (HeLa [1]): 13.8%

N#Cc1ccc(-c2nc3ccccc3s2)cc1
inhibition of growth at 20 µM (HeLa [1]): 10.8%

Nc1nc2c(Br)cccc2s1
inhibition of growth at 20 µM (HeLa [1]): 1.7%

Nc1ccc2oc(-c3cc(Cl)ccc3Cl)nc2c1
inhibition of growth at 20 µM (HeLa [1]): -0.2%

Oc1c(Br)cc(Br)cc1-c1nc2ccccc2s1
inhibition of growth at 20 µM (HeLa [1]): 4%

COc1ccc(-c2nc3cc(N)ccc3o2)cc1
inhibition of growth at 20 µM (HeLa [1]): 42.6%

Nc1ccc(-c2nc3cc(N)ccc3o2)cc1
inhibition of growth at 20 µM (HeLa [1]): 1.2%

Nc1ccc2oc(-c3cccnc3)nc2c1
inhibition of growth at 20 µM (HeLa [1]): 1.3%

COc1cccc2sc(N)nc12
inhibition of growth at 20 µM (HeLa [1]): 0.6%

Nc1cc(N)cc(-c2nc3ccccc3[nH]2)c1
inhibition of growth at 20 µM (HeLa [1]): 34.5%

Nc1cccc(-c2nc3ccccc3s2)c1
inhibition of growth at 20 µM (HeLa [1]): 1.7%

Source: ChEMBL document CHEMBL4765411, “Discovery of 2-(2-aminobenzo[d]thiazol-6-yl) benzo[d]oxazol-5-amine derivatives that regulated HPV relevant cellular pathway and prevented cervical cancer from abnormal proliferation” (Eur J Med Chem, 2020)
